pKd: −log10 of the molar value. Ends that are not written are not given here. Peptide text beside a SMILES is read from it. * marks the point of attachment. BODIPYFLEthylmaleimide = Cc1cc(C)n2c1C=C1C=CC(CCC(=O)NCCN3C(=O)CC(*)C3=O)=[N+]1[B-]2(F)F; BODIPY = not defined here; Cam = NC(=O)C*
How the values were obtained:
lymphocytes B = test: Cytotoxicity by MTS assay, microscope observation and FACS; settings: for Cytotoxicity MTS Assay: MTS cell proliferation assay (Promega); for cellular proportion of cell death by FACS: pre-B lymphocytes, 20 μM
[1] = test system: human retinoblastoma cell lines Y79; type: cell-based; settings: for Y79 cell died: 5 μM
Description: FIG. 8: Cell Death Induced in the Retinoblastoma Cell Line Y79 by Ant-CC2 and Ant-LZ Peptides Rb cell line Y79 were treated with various concentration of the Ant-CC2 (WT) (filled squares) or Ant-CC2 (Mu) (open squares) (A), or Ant-LZ (WT) (filled circles), or Ant-LZ (Mu) (open circles) (B), or Ant peptide (open triangle) (C) for 3 hours (A, B) or 16 hours (C). Cell survival was then evaluated using the MTS assay as described in “Materials and methods”
The detection of cell death was performed using the MTS assay provided by Promega (CellTiter 96® AQueous one solution cell proliferation assay). Briefly, 0.3×10^6 Y79 cells in 450 μl were treated with 50 μl of the wild type Ant-CC2 and Ant-LZ peptides (0.1 to 20 μM) or their mutants Ant-CC2 (Mu), Ant-LZ (Mu) or the Ant or left untreated in serum-free RPMI medium at 37° C. After an incubation of […], an aliquot of the cell suspension (200 μl, 0.12×10^6 cells), was then transferee in 96-well plates and mixed with the MTS solution (40 μl) containing the MTS compound and the phenazine ethosulfate. Two hours after, the quantity of formazan produced by viable cells was measured using an automated microplate reader (Bio-TeK Instruments, INC) at 490 nm absorbance. Cell survival was observed under microscope and was estimated as a percentage of the value of untreated controls. The background of the reaction was determined by mixing the MTS solution with cell-free RPMI medium. To increase the sensitivity of the cell death assay, the present inventors used peptides devoid of BODIPY-labeling because the absorption spectra of the fluorophor overlaps with that of the formazan product. All experiments were repeated twice and each experiment condition was repeated in duplicate wells in each experiment.
Given that specific NF-κB inhibition may trigger apoptosis of cancer cells, the present inventors examined the effects of both cell-permeable Ant-LZ and Ant-CC2 peptides on human retinoblastoma cell viability. In these experiments, the present inventors used NEMO-derived polypeptides without a N-terminal BODIPY labeling to prevent any interference with the MTS assay (see “Materials and Methods”). […] The effect of the Ant-LZ peptide on cell death was stronger than that of the Ant-CC2. This induction of cell death was significant since Rb cell survival was 20% and 65% with the Ant-LZ and the Ant-CC2 peptides respectively when cancer cells were treated for 3 hours at a 20 μM concentration. […] In contrast, 80% and 55% of Y79 cell died in the presence of Ant-LZ and Ant-CC2 respectively at 5 μM concentration (FIG. 8C).

70Z/3-C3 cells = test: FACS analysis of cellular uptake of BODIPY-labeled peptides; type: cell-based, murine; settings: 2 μM BODIPY-peptide, 2 h at 37° C.
Description: All experiments were performed in duplicates.
The uptake of BODIPY labeled NEMO peptides into living cells were monitored by fluorescence activated cell sorting (FACS) which is a conventional tool used to quantify cellular internalization.
Then present inventors next investigated the kinetic and concentration dependency of cellular uptake for the Ant-CC2 BODIPY peptide keeping in mind that the transduction of other NEMO peptides should occur in a similar fashion (FIGS. 2B and 2C).

[2] = test system: LPS-induced NF-κB activation in 70Z/3-C3 cells; test: NF-κB inhibition assay, first procedure (NF-κB dependent β-galactosidase reporter, LPS stimulation); type: cell-based, murine; settings: for effect on LPS-induced NF-κB activation (in words): 20 μM peptide, 2 h, then 5 h LPS; for effect on LPS-induced NF-κB activation of peptides not fused to antennapedia (in words): 2 h peptide, then 3 h LPS (FIG. 3D)
Description: The resulting cell line, 70Z3-C3, was incubated for 2 hours in the absence or in the presence of 20 μM of antennapedia peptide (Ant), or BODIPY-labeled antennapedia peptide (BODIPY-Ant), or BODIPY-labeled antennapedia peptide coupled to CC2 (BODIPY-Ant-CC2) or LZ (BODIPY-Ant-LZ) peptides, After peptide internalization, cells were treated for 5 hours with LPS (3 μg/ml, (+) in left panel) or untreated (right panel and (−) in left panel) and the NF-κB activity was measured by β-galactosidase assay. […] Cells were treated as in (A) but with different concentration of peptide as indicated. The potential of each peptide to inhibit LPS-induced NF-κB activation was measured by determining the IC50 value that correspond to 50% inhibition of LPS-induced NF-κB activation as compared to the control (no peptide) (C). […] Control (no peptide) or CC2, or LZ peptides, with (BODIPY-ANT-CC2, BODIPY-ANT-LZ) or without the antennapedia sequence at the N-terminus (CC2, LZ) were incubated for 2 hours with 70Z3-C3 cells followed with (+) or without (−) the LPS-treatment for 3 hours. NF-κB activity was then measured by β-galactosidase assay.
In a first procedure 2.2×10^5 70Z/3-C3 cells in 220 μl of RPMI 1640 supplemented with 10% fetal calf serum (FCS) and 50 μM β-mercaptoethanol were placed in a 96-well plate and incubated with various concentrations of peptide (0 to 20 μM) at 37° C. in 5% CO2 incubator. After two hours an equal portion (100 μl) of each cell sample transferred in two wells containing each 10^5 cells. One aliquot of cells was then treated for 5 hours with lipopolysaccharides from Salmonella abortus (Sigma) at 0.5 μg/ml final concentration, and the other one left-treated. After 5 hours, cells were centrifuged at 400×g for 5 min at room temperature and the cell pellets were washed three times with cold PBS (250 μl) by centrifugation. Cells were then lysed in the lysis buffer (25 mM tris-phosphate buffer at pH 7.8 containing 8 mM magnesium chloride, 1 mM dithioerythreitol, 1% Triton X-100, 15% glycerol and a protease inhibitor mixture (Roche)), and samples were centrifuged at 4° C. for 20 min to clarify the lysate. The supernatant was then kept on ice, and 30 μl was then assayed to measure the β-galactosidase activity with a plate luminometer (Berthold) using the galacton-star as chemiluminescent substrate (BD Biosciences Clontech, Bronstein et al., 1989). Background of reaction was measured by mixing for 1 hour 30 μl of lysis buffer with the reaction buffer (196 μl) and the galacton-star substrate (4 μl) provided by BD Biosciences.

[3] = Kd and cooperativity indice of NLM peptides by Hill coefficient calculation; type: binding; settings: for pKd: Hill equation fit, read-out: dissociation constant Kd
From the text: The present inventors compared NLM-DR to the corresponding NLM peptide by measuring the respective cooperativity indices, which evidence an advantage of NLM-DR mutated peptide over the wild-type.
The calculation of the “cooperativity indice” by means of Hill coefficient is based on the following formula Boundmax×L^n/(KD^n+L^n)
Boundmax is the maximum concentration of the bound ligand,
L is the concentration of the free ligand,
n is the cooperativity indice and
KD, is the affinity constant of the ligand by the protein.
If these values were to be compared to those obtained from the curves without accounting for cooperativity, the affinity of NLM-DR peptide would be 75 times higher than the affinity of wild-type NLM peptide.

[4] = longer treatment (FIG. 8C, 16 hours)

With CC[C@H](C)[C@H](NC(=O)[C@H](CC(=O)O)NC(=O)[C@H](C)NC(=O)[C@H](CCC(N)=O)NC(=O)[C@H](C)NC(=O)[C@H](CCCCN)NC(=O)[C@H](CC(C)C)NC(=O)[C@H](CCCNC(=N)N)NC(=O)[C@H](CCCNC(=N)N)NC(=O)[C@H](CCCNC(=N)N)NC(=O)[C@H](CCC(N)=O)NC(=O)[C@H](CCCNC(=N)N)NC(=O)[C@H](CCCNC(=N)N)NC(=O)[C@H](CCCCN)NC(=O)[C@H](CCCCN)NC(=O)[C@H](CCCNC(=N)N)NC(=O)CNC(=O)[C@H](Cc1ccc(O)cc1)NC(=O)[C@H](CSC1CC(=O)N(CCNC(=O)CCC2=[N+]3C(=Cc4c(C)cc(C)n4[B-]3(F)F)C=C2)C1=O)NC(C)=O)C(=O)N[C@@H](Cc1ccc(O)cc1)C(=O)N[C@@H](CCCCN)C(=O)N[C@@H](C)C(=O)N[C@@H](CCCNC(=N)N)C(=O)N[C@@H](Cc1ccccc1)C(=O)N[C@@H](CCC(N)=O)C(=O)N[C@@H](C)C(=O)N[C@@H](CCC(=O)O)C(=O)N[C@@H](CCCNC(=N)N)C(=O)N[C@@H](Cc1c[nH]cn1)C(=O)N[C@@H](C)C(=O)N[C@@H](CCCNC(=N)N)C(=O)N[C@@H](CCC(=O)O)C(=O)N[C@@H](CCCCN)C(N)=O (stereo partly shown) [BODIPY-TAT-NLM-DR] (Ac-C(BODIPYFLEthylmaleimide)YGRKKRRQRRRLKAQADIYKARFQAERHAREK-NH2) the “Cytotoxicity Cell morphology FACS” value (lymphocytes B) was “no”, the “Cytotoxicity MTS Assay” value (lymphocytes B) was “no” and the “Cytotoxicity Cell morphology Microscope” value (lymphocytes B) was “no”.

For “Ac-C(Cam)RQIKIWFQNRRMKWKKSKGMQLEDLRQQLQQAEEALVAKQELIDKLKEEAEQHKIV-NH2 [Ant-CC2]”, the Y79 cell died [1, 4] was 55%, the “cellular proportion of cell death by FACS” value (lymphocytes B; absence of stimuli) was 9% and the “cellular proportion of cell death by FACS” value (lymphocytes B; after LPS stimulation) was 13%. For the same molecule, the “proportion of cells transduced” value (70Z/3-C3 cells) was 100%.

With “Ac-CRQIKIWFQNRRMKWKKLKAQADIYKADFQAERHAREKLVEKKEYLQEQLEQLQREFNKL-NH2 [Ant-LZ]” the Y79 cell died [1, 4] was 80% and the “proportion of cells transduced” value (70Z/3-C3 cells) was 100%.

With “Ant-CC2 (Mu): mutant Ant-CC2 devoid of BODIPY-labeling (sequence of SEQ ID NO: 4) (Ac-CRQIKIWFQNRRMKWKKSKGMQLEDLRQQGQQAEEAGVAKQELGDKLKEEAEQHKIV-NH2; not fully specified (residue 1))” the “induction of cell death (in words)” value ([1]; Y79 cells, 3 hours, mutant peptides) was “did not induce concentration cell death” and the “proportion of cells transduced” value (70Z/3-C3 cells) was 100%.

In the case of “Ant-LZ (Mu): mutant Ant-LZ devoid of BODIPY-labeling (sequence of SEQ ID NO: 8) (Ac-CRQIKIWFQNRRMKWKKLKAQADIYKADFQAERHAREKLVEKKEYSQEQLEQSQREFNKL-NH2; not fully specified (residue 1))”, the “proportion of cells transduced” value (70Z/3-C3 cells) was 100%.

With “Ant: third helix of the Antennapedia/penetratin protein, internalization peptide (SEQ ID NO: 1), without BODIPY label (CRQIKIWFQNRRMKWKK) [reference compound]” the “effect on cell survival (in words)” value ([1]; Y79 cells, longer treatment (FIG. 8C, 16 hours)) was “did not affect cell survival” and the “effect on LPS-induced NF-κB activation (in words)” value [2] was “same level of NF-κB activation as the control”.

For “B-CRQIKIWFQNRRMKWKK ({BODIPY}-CRQIKIWFQNRRMKWKK; reading uncertain) [BODIPY-Ant, reference compound]”, the “effect on LPS-induced NF-κB activation (in words)” value [2] was “same level of NF-κB activation as the control”.

For “B-CRQIKIWFQNRRMKWKKLAQADIYKARFQAERHAREK (CRQIKIWFQNRRMKWKKLKAQADIYKARFQAERHAREK; not fully specified (N-terminus)) [BODIPY-Ant-NLM-DR]”, the “Cytotoxicity Cell morphology FACS” value (lymphocytes B) was “+”, the “Cytotoxicity MTS Assay” value (lymphocytes B) was “no” and the “Cytotoxicity Cell morphology Microscope” value (lymphocytes B) was “+”.

With “B-CRRRRRRRLKAQAKIYKARFQAERHAREK [BODIPY-R7-NLM-DR] (CRRRRRRRLKAQADIYKARFQAERHAREK; not fully specified (N-terminus))” the “Cytotoxicity Cell morphology FACS” value (lymphocytes B) was “no” and the “Cytotoxicity Cell morphology Microscope” value (lymphocytes B) was “no”.

In the case of “B-CRRRRRRRLKAQAKIYKARFQAERHAREK [BODIPY-R9-NLM-DR] (CRRRRRRRRRLKAQADIYKARFQAERHAREK; not fully specified (N-terminus))”, the “Cytotoxicity Cell morphology FACS” value (lymphocytes B) was “no”, the “Cytotoxicity MTS Assay” value (lymphocytes B) was “no” and the “Cytotoxicity Cell morphology Microscope” value (lymphocytes B) was “no”.

In the case of “LKAQADIYKADFQAERHAREKLVEKKEYLQEQLEQLQREFNKL [LZ (WT)]”, the “effect on LPS-induced NF-κB activation of peptides not fused to antennapedia (in words)” value [2] was “same level of activation as the control”.

In the case of LKAQADIYKARFQAERHAREK [NLM-DR], the pKd [3] was 3.77 and the “affinity of NLM-DR peptide relative to wild-type NLM peptide” value ([3]; values compared without accounting for cooperativity) was 75 times.

“NLM: corresponding wild type NLM peptide covering the same 21 amino acid range as NLM-DR (LKAQADIYKADFQAERHAREK-NH2; not fully specified (N-terminus))” gave a pKd [3] of 3.62.

With “SKGMQLEDLRQQLQQAEEALVAKQELIDKLKEEAEQHKIV [CC2 (WT)]” the “effect on LPS-induced NF-κB activation of peptides not fused to antennapedia (in words)” value [2] was “same level of activation as the control”.

From patent US7700553B2, “Selective inhibition of NF-κB activation by peptides designed to disrupt nemo oligomerization” (priority 2003, dated 2010)
